No end group written: not given here.
Experiments:
[1] = system: K. pneumoniae ATCC 700603; assay: Cell membrane permeabilization, propidium iodide flow cytometry; type: cell-based, Klebsiella pneumoniae; details: compound at its MIC, 40 min, 5 × 10^6 CFU/mL, supplemented M9; mean of n = 3
Method: (§1) An overnight culture of E. coli ATCC 25922, or of K. pneumoniae ATCC 700603, prepared as described above, was diluted to a final concentration of 5 × 10^6 CFU/mL and allowed to adjust for 30 min at 37 °C under shaking. Membrane permeabilization of bacteria was then assessed by incubating bacteria at 37 °C, in a final volume of 1 mL, with varying concentrations of each peptide or antibiotic used for the BONCAT assay. 5 min before the ending of the selected incubation time (40 min), propidium iodide probe was added to the samples to a final concentration of 10 μg/mL before analysis using a flow cytometer. A positive control consisted of E. coli cells dehydrated with ethanol (as described above), while untreated cells were used as negative control. The fluorescence of untreated cells was used to establish the gating for positive PI-stained cells. Fixed bacterial cells, subjected to the click chemistry reaction to link the Alexa Fluor azide 488 probe, were analysed by flow cytometry and, among the gates-selected ones, only those that tested positive for Propidium Iodide, and thus permeabilized, were considered for the calculation of the mean fluorescence intensity (MFI) of the Alexa Fluor azide 488.
Samples were analyzed by an Attune NxT® (ThermoFisher) equipped with a blue laser (488 nm) and photomultiplier tubes (PMTs) BL1 (525/50) and BL3 (695/40) to collect fluorescence. All parameters were set in logarithmic scale and the signals were recorded as Area. Forward scattering (FSC) was set to 300 mV, side scattering (SSC) to 350 mV and thresholds to 0.2 for FSC and 0.5 for SSC. The compensation matrix was performed according to the tool software. Hierarchical gates and acquisition flow rate (200 μL/min) were set to avoid coincident events. The files were saved as FCS 3.1 and analysed by FCS Express De Novo software v7. Flow cytometry data are presented as means ± SD from three independent experiments (n = 3).

E. coli ATCC 25922 = assay: BONCAT: HPG incorporation into newly synthesized proteins, flow cytometry; type: cell-based, Escherichia coli; details: compound at MIC; for Fluorescence Intensity (% of Control): 10 min pre-incubation then 30 min HPG, untreated = 100%, mean, n ≥ 3; for Decrease in fluorescence compared to untreated bacteria: 40 min total incubation (10 min + 30 min HPG)
Method: We used a modified protocol from [Lindivat et al. (2020)]. Briefly, overnight cultures of E. coli ATCC 25922 or K. pneumoniae ATCC 700603, prepared as described above, were diluted to a final concentration of 5×10^6 CFU/mL and allowed to adjust for 30 min at 37 °C. The culture was then incubated at 37 °C in the dark for 10 or 30 min in the presence or absence of each peptide or antibiotic at various concentrations, with a final volume of 1 mL. At this point, only in certain specified experimental assays, the compounds were removed from the supernatant by centrifugation (16,000 × g for 5 min) and bacteria were washed and resuspended in fresh supplemented M9 medium. Then, 32 μL of a 500 μM homopropargylglycine (HPG) solution were added to each sample, resulting in a final concentration of 16 μM in a finale volume of 1 mL. Also included in each assay were two untreated controls containing only bacteria and bacteria treated with 16 μM HPG alone, respectively. All samples were then incubated at 37 °C in the dark for 30 min. After incubation, samples were washed once with 1X filtered Phosphate Buffered Saline (PBS) (centrifuged at 16,000 x g for 5 min) and resuspended in PBS. After washing, samples were fixed with formaldehyde (Sigma Aldrich, USA) to a final concentration of 3% in 1 mL for 1 h at 25 °C. Subsequently, the samples were centrifuged at 16,000 x g for 5 min and resuspended in 1 mL of PBS. If not analysed immediately, the fixed samples were stored at 4 °C prior to performing the click chemistry reaction. Samples were centrifugated at 16,000 x g for 5 min and bacteria cells were dehydrated by ethanol that was added sequentially to achieve a final concentration of 50% (v/v) (3 min of incubation), 80% (v/v) (3 min of incubation), and 95% (v/v) (3 min of incubation). After dehydration, the samples were centrifugated (16,000 × g, 5 min) and resuspended in PBS. For cell analysis by SDS-PAGE, the following variations were implemented: bacterial cells were diluted in supplemented M9 medium to a final density of ~ 1 × 10^9 CFU/mL, and HPG was added to the samples at a final concentration of 160 μM. Bacteria were incubated with HPG for 0, 15, 30, 60, or 120 min at 37 °C in the dark.
The click reaction was carried out according to [Rostovtsev et al. (2002)]. 15 μL of a pre-mix solution (prepared as described above) were added to each sample containing fixed bacteria that had incorporated HPG (30 μL of pre-mix solution in case of samples prepared for SDS-PAGE analysis), resulting in the following final concentrations in each sample: 0.1 mM copper sulfate, 0.5 mM Tris (3-hydroxypropyltriazolylmethyl)amine (THPTA), and 2.5 μM Alexa Fluor azide 488. Additionally, 50 μL of freshly prepared 100 mM sodium ascorbate and 50 μL of 100 mM aminoguanidine were added (100 μL in case of samples prepared for SDS-PAGE analysis), bringing the final volume to 1 mL. The samples were gently inverted once to mix and incubated for 30 min in the dark at 25 °C. Finally, each sample was washed with PBS once (centrifuged at 16,000 × g for 5 min) and resuspended in 1 mL PBS.
as §1, with “Fixed bacterial cells, subjected to the click chemistry reaction to link the Alexa Fluor azide 488 probe, were analysed by flow cytometry and, among the gates-selected ones, only those that tested positive for Propidium Iodide, and thus permeabilized, were considered for the calculation of the mean fluorescence intensity (MFI) of the Alexa Fluor azide 488.” left out

Row | Compound | Membrane permeabilization (% PI +cells) [1] [%] | Fluorescence Intensity (% of Control) (E. coli ATCC 25922) | Decrease in fluorescence compared to untreated bacteria (E. coli ATCC 25922)
1 | RRIRPRPPRLPRPRPRPLPFPRPGPRPIPRPLPFP [Bac7(1–35)] | <1 | 14 % of Control | –
2 | RRIRPRPPRLPRPRPR [Bac7(1–16)] | <1 | 18 % of Control | –
3 | O=C(N[C@H](CO)[C@H](O)c1ccc([N+](=O)[O-])cc1)C(Cl)Cl [CHL, Chloramphenicol] | – | 20 % of Control | 80%
4 | CO[C@H]1/C=C/O[C@@]2(C)Oc3c(C)c(O)c4c(O)c(c(/C=N/N5CCN(C)CC5)c(O)c4c3C2=O)NC(=O)/C(C)=C\C=C\[C@H](C)[C@H](O)[C@@H](C)[C@@H](O)[C@@H](C)[C@H](OC(C)=O)[C@@H]1C [RIF, Rifampicin] | <1 | 102 % of Control | did not affect fluorescence intensity
